Legend:
BJ-fibroblasts = assay: Inhibition curve on BJ-fibroblasts; type: cell-based, human; conditions: cell survival rate, 4 days, n=3
Experimental: (§1) hESCs-derived INS^+ cells, MSCs[43], neurons, and hepatocytes[44] were derived based on the reported protocols and re-plated on 96-well plates with Accutase digestion. Cardiomyocytes (CMs) were differentiated from H9-MYH6: mCherry reporter line, based on the reported protocol. After overnight incubation, cells were treated with DMSO or different doses of hit compounds for 4 days. After fixation, the cells were stained with markers for each cell type. DAPI was used to stain cell nuclei. Plates were analyzed by ImageXpress^MICRO Automated High-Content Analysis System.
Supplementary Figure 4. Assessment of the toxic effect of propargite on different type […]
(a) Flow cytometry char acterization of CD29+ and CD73+ mesenchymal stem cells (MSCs) derived from H1 hESCs. (b-c) microscope image (b) and flow cytometry (c) characterization of cardiomyocytes expressing MYH6+ derived from a MYH6:mCherry reporter hESC line. (d-e) Immunocytochemistry characterization of MAP2+/TUJ1+ and HuC/D+/MAP2+ neurons (d) and A1AT+/ASGPR1+ hepatocytes (e) derived from H1 hESCs. All the cells were counterstained by DAPI (blue). Scale bars, 100 µm. (f) Inhibition curve of propargite on pancreatic β-like cells, MSCs, cardiomyocytes, neurons, and hepatocytes derived from hESCs, and BJ-fibroblasts (n=3). Values presented as mean±S.D. […]

mDA neurons = assay: Survival of hESC-derived midbrain dopamine neurons; type: cell-based, human
Experimental: Scale bars, 50 μm. b Relative cell survival rate of cortical- and mDA-neurons treated with DMSO or different doses of propargite. […] White arrows indicate propargite-treated mDA cells (TH; red) co-stained with the DNA damage marker (rH2AX; green), and all cells were counterstained with DAPI (blue). […] Values presented as mean ± S.D. p-value was calculated by unpaired two-tailed Student’s t-test were *p < 0.05, **p < 0.01. n.s. indicates a non-significant difference.
Cortical and mDA differentiation from hESC were done with similar protocols those published by our lab previously[36],[37].

MIN6 cells = assay: Western blotting of γ-H2A.X and extracellular HMGB1 in MIN6 cells; type: cell-based, mouse; conditions: time course 1 to 30 h
Excerpt: To extract intracellular protein, cells were placed on ice, washed twice with ice-cold PBS and lysed immediately with RIPA buffer (Life Technologies, 89900) supplemented with a protease inhibitor cocktail (Life Technologies, 78440). Cell lysates were then sonicated and the soluble fraction was collected after centrifugation. Protein amount was quantified by the BCA protein assay (Life Technologies, 23227). To extract extracellular HMGB1, tissue culture media were collected and concentrated using Afyon SDS-PAGE sample preparation kit (advansta, K-02101-025). 20 μg of total protein for each sample was mixed with loading buffer and incubated for 5 min at 95 °C before being loaded into NuPAGE® Novex® 4–12% […] Protein Gels (Life Technologies, NP0321BOX) for electrophoresis. Separated proteins were transferred to a PVDF membrane (Millipore, IPSN07852) after electrophoresis. The membrane was blocked with 5% non-fat milk in TBST (50 mM Tris–HCl at pH 8.0, 150 mM NaCl, 0.1% Tween 20) followed by overnight incubation with the primary antibody at 4 °C. The following antibodies were used with the dilution ratio noted: rabbit anti-HMGB1 (1:1000, Cell Signaling Technology, #6893), rabbit anti-γ-H2A.X (1:1000, Cell Signaling Technology, #9718), rabbit anti-LC3B (1:1000, Cell Signaling Technology, #3868), mouse anti-GSTT1 (1:1000, GeneTex, GTX109250), rabbit anti-GSTM1 (1:1000, R&D system, MAB6894), mouse anti-GAPDH (1:50000, Abcam, ab8245). A peroxidase conjugated horse anti-mouse IgG secondary antibody (1:20000, Vector Laboratories, PI-2000) or peroxidase conjugated goat anti-Rabbit IgG secondary antibody (1:20000, Vector Laboratories, PI-1000) was used for western blot. ECL signals were developed and detected using the SuperSignal™ West Femto Maximum Sensitivity Substrate (Life Technologies, 34094) and a C-DiGit Chemiluminescent Western Blot Scanner (LI-COR). Uncropped scans of all the blots were shown in Supplementary Fig. 7 in the Supplementary Information.

EndoC-βH1 cells = EndoC-βH1 cells carrying sgGSTT1, PI staining; type: cell-based, human; conditions: 1.6 μM propargite
Experimental: Two sgRNAs targeting two different loci on GSTT1 gene: sgGSTT1-1 and sgGSTT1-2 and a sgRNA targeting GFP (sgGFP)[46] which has no specific targets on the human genome and was used as a control, were cloned into lentiCRISPRv2 vectors (Addgene plasmid # 52961)[47]. EndoC-βH1 cells were infected with the lentivirus carrying Cas9 and sgRNAs. After 2 days of selection with 1 μg/ml puromycin, western blots were used to validate the knockout efficiency.

GSTT1+/+ INS+ cells = assay: Inhibition curve on INS+ cells derived from GSTT1+/+ H1 hESCs; type: cell-based, human; conditions: H1 hESC-derived, n = 3; read-out: IC50 of GSTT1+/+-1 INS+ cells
Experimental: as §1
CRISPR sgRNA sequences were designed using the web resources available at http://www.genome-engineering.org/. The target sequences are listed in Supplementary Table 2. Each target sequence was cloned into the pX330-U6-Chimeric_BB-CBh-hSpCas9 vector (Addgene plasmid #42230) to make the gene targeting constructs. To knockout the target genes, two sgRNAs were validated using the surveyor assay in 293T cells, and we chose 1 sgRNA-construct plasmid for further experiments. After validation, H1 or INS^GFP/W HES3 cells were dissociated using Accutase (STEM CELL) and electroporated (8 × 10^5 cells per sample) with 4 μg sgRNA-construct plasmids using Human Stem Cell Nucleofector^TM solution (Lonza) following manufacturer’s instructions. […] A portion of the cells was analyzed by DNA sequencing. […]

Substance: 2-(4-tert-butylphenoxy)-cyclohexyl prop-2-yne-1-sulfonate [propargite]
- IC50 (BJ-fibroblasts): 3000 nM
- mDA neuron cell death (mDA neurons; concentrations at 1 and 3 μM, compared with cortical neurons): significant mDA neuron cell death
- decrease of total cell number in DA neuron cultures (mDA neurons; propargite 1 µM, 3 µM): 40-60%
- sensitivity of GSTT1-/- hESC-derived mDA neurons vs GSTT1+/+ or GSTM1-/- (mDA neurons; propargite 3 μM, FOXA2+ cells): more sensitive
- time after treatment at which γ-H2A.X was induced (MIN6 cells): 12 h
- time after treatment of detection of extracellular HMGB1 (MIN6 cells): 18 h
- INS+ cell death in EndoC-βH1 cells expressing sgGSTT1 (EndoC-βH1 cells): significant increase
- IC50 (GSTT1+/+ INS+ cells): 2150 nM

— paper PMC6240096, “A hPSC-based platform to discover gene-environment interactions that impact human β-cell and dopamine neuron survival” (Nature Communications, 2018)
